How the values were obtained:
Escherichia coli = experiment: Antibacterial activity against Escherichia coli ATCC 25922 incubated for 16 to 18 hrs CLSI based by microbroth dilution assay; assay type: functional; details: time 16-18 hrs
Staphylococcus aureus [1] = experiment: Antibacterial activity against methicillin-resistant Staphylococcus aureus clinical isolate M-6 incubated for 16 to 18 hrs CLSI based by microbroth dilution assay; assay type: functional; details: time 16-18 hrs
Staphylococcus aureus [2] = experiment: Antibacterial activity against methicillin-resistant Staphylococcus aureus clinical isolate M-2 incubated for 16 to 18 hrs CLSI based by microbroth dilution assay; assay type: functional; details: time 16-18 hrs
Staphylococcus aureus [3] = experiment: Antibacterial activity against methicillin-resistant Staphylococcus aureus clinical isolate M-9 incubated for 16 to 18 hrs CLSI based by microbroth dilution assay; assay type: functional; details: time 16-18 hrs
Staphylococcus aureus [4] = experiment: Antibacterial activity against methicillin-resistant Staphylococcus aureus clinical isolate M-4 incubated for 16 to 18 hrs CLSI based by microbroth dilution assay; assay type: functional; details: time 16-18 hrs
Staphylococcus aureus [5] = experiment: Antibacterial activity against Staphylococcus aureus ATCC 29213 incubated for 16 to 18 hrs CLSI based by microbroth dilution assay; assay type: functional; details: time 16-18 hrs
Staphylococcus aureus [6] = experiment: Antibacterial activity against methicillin-resistant Staphylococcus aureus clinical isolate M-7 incubated for 16 to 18 hrs CLSI based by microbroth dilution assay; assay type: functional; details: time 16-18 hrs
Staphylococcus aureus [7] = experiment: Antibacterial activity against methicillin-resistant Staphylococcus aureus clinical isolate M-10 incubated for 16 to 18 hrs CLSI based by microbroth dilution assay; assay type: functional; details: time 16-18 hrs
Staphylococcus aureus [8] = experiment: Antibacterial activity against methicillin-resistant Staphylococcus aureus clinical isolate M-8 incubated for 16 to 18 hrs CLSI based by microbroth dilution assay; assay type: functional; details: time 16-18 hrs
[9] = Hemolytic activity in sheep erythrocytes incubated for 1 hr by absorbance based assay; assay type: toxicity, cell-based, Ovis aries, Erythrocyte
Staphylococcus aureus [10] = experiment: Antibacterial activity against methicillin-resistant Staphylococcus aureus clinical isolate M-5 incubated for 16 to 18 hrs CLSI based by microbroth dilution assay; assay type: functional; details: time 16-18 hrs
Staphylococcus aureus [11] = experiment: Antibacterial activity against methicillin-resistant Staphylococcus aureus clinical isolate M-3 incubated for 16 to 18 hrs CLSI based by microbroth dilution assay; assay type: functional; details: time 16-18 hrs
Staphylococcus aureus [12] = experiment: Antibacterial activity against methicillin-resistant Staphylococcus aureus clinical isolate M-1 incubated for 16 to 18 hrs CLSI based by microbroth dilution assay; assay type: functional; details: time 16-18 hrs
[13] = Selectivity index, ratio of HC50 for sheep erythrocytes to MIC for Staphylococcus aureus ATCC 29213; assay type: toxicity; details: read-out: Selectivity Index

SMILES | MIC (Escherichia coli) | MIC (Staphylococcus aureus [1]) | MIC (Staphylococcus aureus [2]) | MIC (Staphylococcus aureus [3]) | MIC (Staphylococcus aureus [4]) | MIC (Staphylococcus aureus [5]) | MIC (Staphylococcus aureus [6]) | MIC (Staphylococcus aureus [7]) | MIC (Staphylococcus aureus [8]) | HC50 at 1 h [9] | MIC (Staphylococcus aureus [10]) | MIC (Staphylococcus aureus [11]) | MIC (Staphylococcus aureus [12]) | selectivity ratio [13]
CCCCN(CCCC)C(=O)C[N+](C)(C)CCCn1c(-c2ccc(N(C)C)cc2)nc2c3ccccc3c3ccccc3c21.[Br-] | 64 µg/mL | 4 µg/mL | 4 µg/mL | 4 µg/mL | 4 µg/mL | 8 µg/mL | 4 µg/mL | 4 µg/mL | 4 µg/mL | > 640 µg/mL | 4 µg/mL | 4 µg/mL | 4 µg/mL | > 80
CC(C)CN(CC(C)C)C(=O)C[N+](C)(C)CCCn1c(-c2ccc(N(C)C)cc2)nc2c3ccccc3c3ccccc3c21.[Br-] | 128 µg/mL | 16 µg/mL | 16 µg/mL | 8 µg/mL | 4 µg/mL | 8 µg/mL | 32 µg/mL | 8 µg/mL | 16 µg/mL | > 320 µg/mL | 8 µg/mL | 16 µg/mL | 8 µg/mL | 40
CCNC(=O)C[N+](C)(C)CCCCCn1c(-c2ccc(N(C)C)cc2)nc2c3ccccc3c3ccccc3c21.[Br-] | 128 µg/mL | 32 µg/mL | 32 µg/mL | 32 µg/mL | 32 µg/mL | 16 µg/mL | 16 µg/mL | 32 µg/mL | 32 µg/mL | > 640 µg/mL | 32 µg/mL | 32 µg/mL | 32 µg/mL | > 40
CN(C)c1ccc(-c2nc3c4ccccc4c4ccccc4c3n2CCC[N+](C)(C)CC(=O)N2CCSCC2)cc1.[Br-] | > 128 µg/mL | 64 µg/mL | 64 µg/mL | 64 µg/mL | 64 µg/mL | 64 µg/mL | 32 µg/mL | 64 µg/mL | 128 µg/mL | 357 µg/mL | 64 µg/mL | 64 µg/mL | 64 µg/mL | 5.6
CN(C)c1ccc(-c2nc3c4ccccc4c4ccccc4c3n2CCCCC[N+](C)(C)CC(=O)N2CCSCC2)cc1.[Br-] | > 128 µg/mL | 4 µg/mL | 8 µg/mL | 4 µg/mL | 4 µg/mL | 4 µg/mL | 4 µg/mL | 8 µg/mL | 4 µg/mL | > 640 µg/mL | 8 µg/mL | 4 µg/mL | 8 µg/mL | > 160
CCCCCCNC(=O)C[N+](C)(C)CCCCn1c(-c2ccc(N(C)C)cc2)nc2c3ccccc3c3ccccc3c21.[Br-] | 32 µg/mL | 2 µg/mL | 2 µg/mL | 1 µg/mL | 2 µg/mL | 2 µg/mL | 1 µg/mL | 2 µg/mL | 1 µg/mL | 353 µg/mL | 2 µg/mL | 2 µg/mL | 2 µg/mL | 176
CCCN(CCC)C(=O)C[N+](C)(C)CCCn1c(-c2ccc(N(C)C)cc2)nc2c3ccccc3c3ccccc3c21.[Br-] | > 128 µg/mL | 64 µg/mL | 32 µg/mL | 32 µg/mL | 32 µg/mL | 32 µg/mL | 16 µg/mL | 32 µg/mL | 64 µg/mL | > 640 µg/mL | 32 µg/mL | 32 µg/mL | 32 µg/mL | > 20
CC(C)N(C(=O)C[N+](C)(C)CCCCn1c(-c2ccc(N(C)C)cc2)nc2c3ccccc3c3ccccc3c21)C(C)C.[Br-] | > 128 µg/mL | 8 µg/mL | 8 µg/mL | 8 µg/mL | 8 µg/mL | 8 µg/mL | 8 µg/mL | 8 µg/mL | 8 µg/mL | > 640 µg/mL | 8 µg/mL | 8 µg/mL | 8 µg/mL | > 80

Source: ChEMBL document CHEMBL5512637, “Development of Membrane-Targeting Fluorescent 2-Phenyl-1H-phenanthro[9,10-d]imidazole-Antimicrobial Peptide Mimic Conjugates against Methicillin-Resistant Staphylococcus aureus” (J Med Chem, 2024)
